Assay results reported in ChEMBL document CHEMBL1135360, “The design and synthesis of a novel series of indole derived selective ET(A) antagonists” (Bioorg Med Chem Lett, 2002).

What was measured:
Endothelin-1 receptor = biological target: T1, Endothelin-1 receptor (Homo sapiens, UniProt P25101); assay: Displacement of [125I]-labeled ET-1 from human cloned endothelin A (ETA) receptor
T1 sequence (P25101 whole entry): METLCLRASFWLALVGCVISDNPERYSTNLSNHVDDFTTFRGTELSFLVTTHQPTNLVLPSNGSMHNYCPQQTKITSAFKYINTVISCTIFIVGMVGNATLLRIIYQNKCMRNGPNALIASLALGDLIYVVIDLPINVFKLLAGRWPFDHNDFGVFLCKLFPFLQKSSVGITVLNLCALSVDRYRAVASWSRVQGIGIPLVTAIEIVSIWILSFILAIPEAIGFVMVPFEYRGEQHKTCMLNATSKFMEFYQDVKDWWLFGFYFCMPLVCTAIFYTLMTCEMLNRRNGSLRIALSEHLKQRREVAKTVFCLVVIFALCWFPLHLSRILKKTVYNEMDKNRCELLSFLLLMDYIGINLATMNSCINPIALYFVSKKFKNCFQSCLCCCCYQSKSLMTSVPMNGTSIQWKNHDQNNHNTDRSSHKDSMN

[1] = biological target: T2, Endothelin receptor type B (Homo sapiens, UniProt P24530); assay: Binding affinity towards human cloned endothelin B receptor by [125I]ET1 displacement.
T2 sequence (P24530 whole entry): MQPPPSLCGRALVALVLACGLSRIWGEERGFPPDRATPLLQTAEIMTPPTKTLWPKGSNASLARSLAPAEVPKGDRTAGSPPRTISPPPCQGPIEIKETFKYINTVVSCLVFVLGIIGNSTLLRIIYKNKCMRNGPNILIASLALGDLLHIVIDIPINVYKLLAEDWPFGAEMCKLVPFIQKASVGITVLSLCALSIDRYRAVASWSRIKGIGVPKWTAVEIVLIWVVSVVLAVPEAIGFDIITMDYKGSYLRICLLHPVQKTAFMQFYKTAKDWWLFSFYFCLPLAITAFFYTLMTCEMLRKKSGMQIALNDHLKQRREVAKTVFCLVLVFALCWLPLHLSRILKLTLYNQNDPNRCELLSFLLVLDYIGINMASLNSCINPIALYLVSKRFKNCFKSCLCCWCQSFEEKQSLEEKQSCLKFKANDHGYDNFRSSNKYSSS

[2] = biological target: Endothelin receptor, ET-A/ET-B (Homo sapiens) (UniProt P24530+P25101); assay: Ratio of binding affinity at Endothelin-A receptors compared to Endothelin-B receptors.; type: protein assay

| SMILES | IC50 (Endothelin-1 receptor) | IC50 [1] | Ratio [2] |
| --- | --- | --- | --- |
| CC(C)c1ccc(S(=O)(=O)NC(=O)C(c2ccc3c(c2)OCO3)c2cn(C)c3cc(-c4nn[nH]n4)ccc23)cc1 (stereo unspecified) | 0.035 µM | – | – |
| CCn1cc(C(C(=O)NS(=O)(=O)c2ccc(C(C)C)cc2)c2ccc3c(c2)OCO3)c2ccc(C(N)=O)cc21 (stereo unspecified) | 0.0035 µM | 0.068 µM | 19.7 |
| Cn1cc(C(C(=O)NS(=O)(=O)c2ccc(Cl)cc2)c2ccc3c(c2)OCO3)c2ccc(C(N)=O)cc21 (stereo unspecified) | 0.0075 µM | 1.1 µM | 146 |
| CCn1cc(C(C(=O)NS(=O)(=O)c2ccc(C(C)C)cc2)c2ccc3c(c2)OCO3)c2ccc(C(=O)N(C)C)cc21 (stereo unspecified) | 0.072 µM | 0.474 µM | 6.6 |
| CC(C)c1ccc(S(=O)(=O)NC(=O)C(c2ccc3c(c2)OCO3)c2c[nH]c3cc(C(=O)O)ccc23)cc1 (stereo unspecified) | 0.031 µM | – | – |
| CC(C)c1ccc(S(=O)(=O)NC(=O)C(c2ccc3c(c2)OCO3)c2cn(C)c3cc(C#N)ccc23)cc1 (stereo unspecified) | 0.061 µM | – | – |
| COc1cc(OC)nc(O[C@H](C(=O)O)C(OC)(c2ccccc2)c2ccccc2)n1 [DARUSENTAN] | 0.0008 µM | 0.016 µM | – |
| Cc1ccccc1S(=O)(=O)NC(=O)C(c1ccc2c(c1)OCO2)c1cn(C)c2cc(C(N)=O)ccc12 (stereo unspecified) | 0.0052 µM | 1.06 µM | 203 |
| CC(C)c1ccc(S(=O)(=O)NC(=O)C(c2ccc3c(c2)OCO3)c2cn(C)c3cc(CO)ccc23)cc1 (stereo unspecified) | 0.019 µM | 0.45 µM | 23.7 |
| CC(C)c1ccc(S(=O)(=O)NC(=O)C(c2ccc3c(c2)OCO3)c2cn(C)c3cc(CN)ccc23)cc1 (stereo unspecified) | 0.038 µM | 0.204 µM | 5.4 |
| COC(=O)c1ccc2c(C(C(=O)NS(=O)(=O)c3ccc(C(C)C)cc3)c3ccc4c(c3)OCO4)cn(C)c2c1 (stereo unspecified) | 0.1 µM | – | – |
| CC(C)c1ccc(S(=O)(=O)NC(=O)C(c2ccc3c(c2)OCO3)c2cn(C)c3cc(C(N)=O)ccc23)cc1 (stereo unspecified) | 0.0023 µM | 0.034 µM | 14.8 |
| CCn1cc(C(C(=O)NS(=O)(=O)c2ccc(C(C)C)cc2)c2ccc3c(c2)OCO3)c2ccc(C(=O)O)cc21 (stereo unspecified) | 0.032 µM | 2.2 µM | 68.8 |
| CCOc1cc(C)ccc1S(=O)(=O)NC(=O)C(c1ccc2c(c1)OCO2)c1cn(C)c2cc(C(N)=O)ccc12 (stereo unspecified) | 0.00055 µM | 0.397 µM | 722 |
| COc1ccc(S(=O)(=O)NC(=O)C(c2ccc3c(c2)OCO3)c2cn(C)c3cc(C(N)=O)ccc23)cc1 (stereo unspecified) | 0.0028 µM | 0.094 µM | 34 |
| Cn1cc(C(C(=O)NS(=O)(=O)c2ccc(C(F)(F)F)cc2)c2ccc3c(c2)OCO3)c2ccc(C(N)=O)cc21 (stereo unspecified) | 0.0065 µM | 0.228 µM | 35 |
| Cn1cc(C(C(=O)NS(=O)(=O)c2ccccc2C(=O)O)c2ccc3c(c2)OCO3)c2ccc(C(N)=O)cc21 (stereo unspecified) | 0.0031 µM | 0.846 µM | 272 |
| CCn1cc(C(C(=O)NS(=O)(=O)c2ccc(C(C)C)cc2)c2ccc3c(c2)OCO3)c2ccc(C(=O)NC)cc21 (stereo unspecified) | 0.03 µM | 0.21 µM | 7 |
| Cn1cc(C(C(=O)NS(=O)(=O)c2ccccc2)c2ccc3c(c2)OCO3)c2ccc(C(N)=O)cc21 (stereo unspecified) | 0.012 µM | 2.57 µM | 184 |
| COc1cc(C)ccc1S(=O)(=O)NC(=O)C(c1ccc2c(c1)OCO2)c1cn(C)c2cc(C(N)=O)ccc12 (stereo unspecified) | 0.0011 µM | 0.302 µM | 275 |
| CCn1cc(C(C(=O)NS(=O)(=O)c2ccc(C(C)C)cc2)c2ccc3c(c2)OCO3)c2ccc(C(=O)OC)cc21 (stereo unspecified) | 0.21 µM | – | – |
| CC(C)c1ccc(S(=O)(=O)NC(=O)C(c2ccc3c(c2)OCO3)c2cn(C)c3cc(C(=O)O)ccc23)cc1 (stereo unspecified) | 0.022 µM | 1.5 µM | 68.2 |
| COc1ccccc1S(=O)(=O)NC(=O)C(c1ccc2c(c1)OCO2)c1cn(C)c2cc(C(N)=O)ccc12 (stereo unspecified) | 0.005 µM | 0.31 µM | 62 |
| Cc1ccc(S(=O)(=O)NC(=O)C(c2ccc3c(c2)OCO3)c2cn(C)c3cc(C(N)=O)ccc23)cc1 (stereo unspecified) | 0.0018 µM | 0.774 µM | 430 |
